The results in this text go back to patent US11254668B2, “Pyrazolo[1,5-A]pyrazin-4-yl and related derivatives” (Pfizer Inc., priority 2017, dated 2022).

A word on the IC50: it is the point on the concentration scale where inhibition reaches its midpoint.

Holding throughout (format): biochemical
For experiment [1], the target named is JAK3 (Homo sapiens (Human), UniProt P52333). Description: JAK Caliper Enzyme Assay at 1 mM ATP, JAK3. In a few lines:
(§1)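 Recombinant human kinase domains phosphorylate a fluorescent synthetic peptide at 1 mM ATP, room temperature, with enzyme and time tuned for 20-30% conversion; EDTA-stopped. Product/substrate separated by microfluidic mobility shift; percent effect versus DMSO and positive controls fitted to IC50 (nM).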

In experiment [2] the target is JAK2 (Homo sapiens (Human), UniProt O60674). Description: JAK Caliper Enzyme Assay at 1 mM ATP, JAK2. In a few lines:
(§2)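 Inhibition is measured as reduced phosphorylation of a synthetic peptide by the recombinant human kinase domain at 1 mM ATP. Conditions give 20–30% conversion at room temperature before EDTA quench, and on-chip separation of labelled substrate and product yields percent conversion for dose–response plotting.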

Experiment [3] deals with TYK2 (Homo sapiens (Human), UniProt P29597). Description: JAK Caliper Enzyme Assay at 1 mM ATP, TYK2. The essentials:
as §2

For experiment [4], the target named is JAK1 (Homo sapiens (Human), UniProt P23458). Description: JAK Caliper Enzyme Assay at 1 mM ATP, JAK1. In a few lines:
as §1

Sequence of JAK2 (O60674 849-1124): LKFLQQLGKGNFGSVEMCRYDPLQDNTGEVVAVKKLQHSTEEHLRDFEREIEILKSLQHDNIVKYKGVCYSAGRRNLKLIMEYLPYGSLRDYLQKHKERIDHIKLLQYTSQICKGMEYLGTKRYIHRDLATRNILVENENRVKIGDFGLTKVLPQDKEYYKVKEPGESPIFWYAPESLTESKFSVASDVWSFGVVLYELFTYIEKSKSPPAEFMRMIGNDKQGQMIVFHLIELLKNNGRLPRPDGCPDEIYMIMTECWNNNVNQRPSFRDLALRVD
Sequence of JAK1 (P23458 875-1153): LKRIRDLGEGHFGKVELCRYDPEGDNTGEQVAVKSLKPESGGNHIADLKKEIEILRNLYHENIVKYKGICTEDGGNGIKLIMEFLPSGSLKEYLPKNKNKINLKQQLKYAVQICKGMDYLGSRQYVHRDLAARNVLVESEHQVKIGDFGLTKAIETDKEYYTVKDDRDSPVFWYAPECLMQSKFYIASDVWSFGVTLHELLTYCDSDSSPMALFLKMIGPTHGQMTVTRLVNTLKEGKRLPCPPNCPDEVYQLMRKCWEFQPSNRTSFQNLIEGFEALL
Sequence of JAK3 (P52333 822-1111): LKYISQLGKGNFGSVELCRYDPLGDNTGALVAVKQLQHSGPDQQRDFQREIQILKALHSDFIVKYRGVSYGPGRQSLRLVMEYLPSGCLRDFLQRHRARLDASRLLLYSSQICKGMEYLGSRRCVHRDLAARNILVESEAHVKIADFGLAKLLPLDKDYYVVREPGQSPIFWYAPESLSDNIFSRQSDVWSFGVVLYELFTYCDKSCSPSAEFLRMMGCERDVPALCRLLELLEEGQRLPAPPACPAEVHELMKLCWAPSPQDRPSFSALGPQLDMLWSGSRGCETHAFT
Sequence of TYK2 (P29597 897-1176): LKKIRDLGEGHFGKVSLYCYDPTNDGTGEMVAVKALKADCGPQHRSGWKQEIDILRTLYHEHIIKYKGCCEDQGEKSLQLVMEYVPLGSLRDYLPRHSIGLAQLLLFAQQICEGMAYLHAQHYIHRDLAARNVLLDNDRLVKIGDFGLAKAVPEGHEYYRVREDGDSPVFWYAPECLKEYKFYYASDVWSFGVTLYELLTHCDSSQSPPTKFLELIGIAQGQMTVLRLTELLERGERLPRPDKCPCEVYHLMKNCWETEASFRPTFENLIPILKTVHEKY

`Cc1cncc(-c2cc3ncccc3c(-c3ccn(C4(CC#N)CN(CC(F)(F)F)C4)n3)n2)c1` [Example 173, [3-{3-[7-(5-methylpyridin-3-yl)-1,6-naphthyridin-5-yl]-1H-pyrazol-1-yl}-1-(2,2,2-trifluoroethyl)azetidin-3-yl]acetonitrile]: the IC50 in experiment [1] was > 10 µM; in experiment [2] it was 7880 nM; in experiment [3], 1880 nM; in experiment [4] it was > 10000 nM.

On to `Cc1cc(-c2cc3ncccc3c(-c3ccn(C4(CC#N)CN(S(C)(=O)=O)C4)n3)n2)ccn1` [Example 174, [3-{3-[7-(2-methylpyridin-4-yl)-1,6-naphthyridin-5-yl]-1H-pyrazol-1-yl}-1-(methylsulfonyl)azetidin-3-yl]acetonitrile], for which the 50% inhibitory concentration (IC50) in experiment [1] is > 10 µM; in experiment [2], 332 nM; in experiment [3] it was 49 nM; in experiment [4], 785 nM.

As to `Cc1ccc(-c2cc3ncccc3c(-c3ccn(C4(CC#N)CN(S(C)(=O)=O)C4)n3)n2)cn1` [Example 175, [3-{3-[7-(6-methylpyridin-3-yl)-1,6-naphthyridin-5-yl]-1H-pyrazol-1-yl}-1-(methylsulfonyl)azetidin-3-yl]acetonitrile], the IC50 in experiment [1] was > 10 µM; in experiment [2] it was 1180 nM; in experiment [3], 135 nM; in experiment [4] it was 5740 nM.

Take `Cc1cc(-c2cc3ncccc3c(-c3ccn(C4(CC#N)CN(CC(F)(F)F)C4)n3)n2)ccn1` [Example 176, [3-{3-[7-(2-methylpyridin-4-yl)-1,6-naphthyridin-5-yl]-1H-pyrazol-1-yl}-1-(2,2,2-trifluoroethyl)azetidin-3-yl]acetonitrile]: the IC50 in experiment [1] is > 10 µM; in experiment [2] it was 634 nM; in experiment [3], 71 nM; in experiment [4] it was 966 nM.

Regarding `Cc1ccc(-c2cc3ncccc3c(-c3ccn(C4(CC#N)CN(CC(F)(F)F)C4)n3)n2)cn1` [Example 177, [3-{3-[7-(6-methylpyridin-3-yl)-1,6-naphthyridin-5-yl]-1H-pyrazol-1-yl}-1-(2,2,2-trifluoroethyl)azetidin-3-yl]acetonitrile], the IC50 in experiment [1] was > 10 µM; in experiment [2], 794 nM; in experiment [3], 58 nM; in experiment [4], 2610 nM.

For the molecule `N#CCC1(n2ccc(-c3nc(-c4cncc(F)c4)cc4ncccc34)n2)CN(CC(F)(F)F)C1` [Example 178, [3-{3-[7-(5-fluoropyridin-3-yl)-1,6-naphthyridin-5-yl]-1H-pyrazol-1-yl}-1-(2,2,2-trifluoroethyl)azetidin-3-yl]acetonitrile], the IC50 in experiment [1] is > 10 µM; in experiment [2], 6780 nM; in experiment [3], 1370 nM; in experiment [4] it was > 10000 nM.

Turning to `N#CCC1(n2ccc(-c3nc(-c4ccncc4F)cc4ncccc34)n2)CN(CC(F)(F)F)C1` [Example 179, [3-{3-[7-(3-fluoropyridin-4-yl)-1,6-naphthyridin-5-yl]-1H-pyrazol-1-yl}-1-(2,2,2-trifluoroethyl)azetidin-3-yl]acetonitrile], the IC50 is > 10 µM in experiment [1], 9670 nM in experiment [2], 285 nM in experiment [3] and > 10000 nM in experiment [4].

Take `N#CC[C@]1(n2ccc(-c3nc(-c4cccc(O)n4)cc4ncccc34)n2)C[C@@H](C#N)C1` [Example 181, cis-3-(cyanomethyl)-3-{3-[7-(6-hydroxypyridin-2-yl)-1,6-naphthyridin-5-yl]-1H-pyrazol-1-yl}cyclobutanecarbonitrile]: the half-inhibitory concentration (IC50) in experiment [1] was > 10 µM; in experiment [2], 123 nM; in experiment [3], 40 nM; in experiment [4], 853 nM.

As for `N#CC[C@]1(n2ccc(-c3nc(-c4cccc(O)n4)cc4ncccc34)n2)C[C@H](C#N)C1` [Example 182, trans-3-(cyanomethyl)-3-{3-[7-(6-hydroxypyridin-2-yl)-1,6-naphthyridin-5-yl]-1H-pyrazol-1-yl}cyclobutanecarbonitrile], the IC50 in experiment [1] is > 10 µM; in experiment [2], 224 nM; in experiment [3], 53 nM; in experiment [4], 2020 nM.
